Source: patent US8293781B2, “Indole derivatives having cPLA2 inhibiting activity and applications and production methods of the same” (Daiichi Sankyo Company, Limited, priority 2007, dated 2012)
Where a name gives a salt, the structure may show the parent alone.

Molecular target: T1, cPLA2 crudely purified from the cytoplasm fraction of U937 (Homo sapiens, UniProt P47712)
T1 construct: cPLA2 crudely purified from the cytoplasm fraction of U937; endogenous in cells; host or cells: U937 cells (cytoplasm fraction, crude purification)
T1 sequence (P47712 1-749): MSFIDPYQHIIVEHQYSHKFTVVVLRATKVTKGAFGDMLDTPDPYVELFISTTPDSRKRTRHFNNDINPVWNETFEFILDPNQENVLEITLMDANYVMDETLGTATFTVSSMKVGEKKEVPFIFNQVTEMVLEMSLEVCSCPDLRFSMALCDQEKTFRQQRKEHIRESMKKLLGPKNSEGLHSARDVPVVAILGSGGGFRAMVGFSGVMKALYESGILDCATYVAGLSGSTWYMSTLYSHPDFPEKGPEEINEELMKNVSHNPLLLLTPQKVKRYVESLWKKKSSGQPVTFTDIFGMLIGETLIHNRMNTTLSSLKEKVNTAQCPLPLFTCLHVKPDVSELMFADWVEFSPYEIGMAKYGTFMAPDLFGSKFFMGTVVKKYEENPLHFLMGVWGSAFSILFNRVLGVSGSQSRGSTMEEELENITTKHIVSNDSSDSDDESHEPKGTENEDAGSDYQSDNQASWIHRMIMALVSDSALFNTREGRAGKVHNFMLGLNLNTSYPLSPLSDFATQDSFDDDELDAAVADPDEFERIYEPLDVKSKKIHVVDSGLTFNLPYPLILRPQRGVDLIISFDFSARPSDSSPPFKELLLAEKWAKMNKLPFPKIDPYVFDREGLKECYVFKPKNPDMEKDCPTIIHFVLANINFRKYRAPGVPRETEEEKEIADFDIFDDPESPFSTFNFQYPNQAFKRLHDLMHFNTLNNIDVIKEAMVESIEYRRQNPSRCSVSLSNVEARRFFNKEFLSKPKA
Assay: Measurement of cPLA2 inhibitory activity (release of [14C]-arachidonic acid from phosphatidyl choline liposome)
Format: biochemical
Settings: not given
Description: The cPLA2 inhibitory activity was measured based on the method described in the document [See H. Naraba et al., J. Immunol. 160, 2974-2982 (1998)] and modified in the following way.
A DMSO solution of the present invitation compounds was diluted to 2.5 times the final concentration with the assay buffer (4 mM CaCl2, 2 mM dithiothreitol, 150 mM NaCl, 50 mM HEPES buffer solution (pH7.5)) containing 0.55 mg/ml BSA. To 20 μl of this, cPLA2 crudely purified from the cytoplasm fraction of U937 was added in an amount of 10 μl after dilution by an assay buffer solution containing 0.55 mg/ml BSA. A liposome prepared by ultrasonically treating L-α-1-palmitoyl-2-[14C]arachidonyl-phosphatidyl choline (made by PerkinElmer) and adjusted by the assay buffer solution to a concentration of phosphatidyl choline of 10 μM was added and stirred in by an amount of 20 μl and the mixture was reacted at 37° C. for 60 minutes. The [^14C]-arachidonic acid released due to the reaction was extracted based on the method described in the documents [see V. P. Dole et al., J. Biol. Chem. 235, 2595 (1960)], was added to Lumaplate® (made by PerkinElmer), dried, then measured by Topcount® (made by PerkinElmer). Except for not adding the present invention compounds, the same procedure was performed as the above to obtain the enzyme control. Except for not adding the invention compounds and not adding the enzyme, the same procedure was followed as above to obtain a negative control. The inhibiting activity was expressed as a percent (%) of the value minus the negative control with respect to the value of the enzyme control minus the negative control. From this, the 50% inhibiting concentration (IC50, μM) was calculated.

Q: How did the IC50 turn out when O=C(O)/C=C/c1ccc2c(c1)c(C(=O)c1ccccc1)cn2-c1ccccc1 [Example 3, (2E)-3-(3-benzoyl-1-phenyl-1H-indol-5-yl)-2-propenoic acid] was run?
A: Its IC50 is 0.494 µM.

Q: O=C(O)CCc1ccc2c(c1)c(C(=O)c1ccccc1)cn2-c1ccccc1 [Example 4, 3-(3-benzoyl-1-phenyl-1H-indol-5-yl)propanoic acid] was tested. Which IC50 did it give?
A: Its IC50 is 0.146 µM.

Q: How did the IC50 turn out when O=C(O)/C=C/c1ccc2c(c1)c(C(=O)Cc1ccccc1)cn2-c1ccccc1 [Example 11, (2E)-3-[1-phenyl-3-(phenylacetyl)-1H-indol-5-yl]-2-propenoic acid] was run?
A: The IC50 was 1.91 µM.

Q: How did the IC50 turn out when O=C(O)CCc1ccc2c(c1)c(C(=O)Cc1ccccc1)cn2-c1ccccc1 [Example 12, 3-[1-phenyl-3-(phenylacetyl)-1H-indol-5-yl]propanoic acid] was run?
A: The IC50 was 0.261 µM.

Q: Cc1c(C(=O)Cc2ccccc2)c2cc(/C=C/C(=O)O)ccc2n1-c1ccccc1 [Example 44, (2E)-3-[2-methyl-1-phenyl-3-(phenylacetyl)-1H-indol-5-yl]-2-propenoic acid] was tested. Which IC50 did it give?
A: Its IC50 is 0.421 µM.

Q: Cc1c(C(=O)Cc2ccccc2)c2cc(CCC(=O)O)ccc2n1-c1ccccc1 [Example 45, 3-[2-methyl-1-phenyl-3-(phenylacetyl)-1H-indol-5-yl]propanoic acid] was tested. Which IC50 did it give?
A: The IC50 was 0.225 µM.

Q: For O=C(O)/C=C/c1ccc2c(c1)c(C(=O)c1cccc3ccccc13)cn2-c1ccccc1 [Example 50, (2E)-3-[3-(1-naphthoyl)-1-phenyl-1H-indol-5-yl]-2-propenoic acid], which IC50 is on record?
A: The IC50 was 6.99 µM.

Q: For O=C(O)CCc1ccc2c(c1)c(Cc1cccc3ccccc13)cn2-c1ccccc1 [Example 51, 3-[3-(1-naphthylmethyl)-1-phenyl-1H-indol-5-yl]propanoic acid], which IC50 is on record?
A: Its IC50 is 0.704 µM.

Q: With O=C(O)/C=C/c1ccc2c(c1)c(C(=O)c1ccc3ccccc3c1)cn2-c1ccccc1 [Example 53, (2E)-3-[3-(2-naphthoyl)-1-phenyl-1H-indol-5-yl]-2-propenoic acid] as the compound, how does the IC50 read?
A: Its IC50 is 5.52 µM.

Q: For O=C(O)/C=C/c1ccc2c(c1)c(C(=O)Cc1ccc(Cl)cc1)cn2-c1ccccc1 [Example 56, (2E)-3-{3-[(4-chlorophenyl)acetyl]-1-phenyl-1H-indol-5-yl}-2-propenoic acid], which IC50 is on record?
A: Its IC50 is 6.4 µM.

Q: For O=C(O)CCc1ccc2c(c1)c(C(=O)Cc1ccc(Cl)cc1)cn2-c1ccccc1 [Example 57, 3-{3-[(4-chlorophenyl)acetyl]-1-phenyl-1H-indol-5-yl}propanoic acid], which IC50 is on record?
A: Its IC50 is 1.39 µM.

Same assay, conditions: cPLA2 from U937 cytoplasm fraction, [14C]arachidonyl-phosphatidyl choline liposome, 37° C., 60 minutes; read-out: cPLA2 inhibitory activity, 50% inhibiting concentration IC50

Q: For O=C(O)/C=C/c1ccc2c(c1)c(Cc1ccccc1)cn2-c1ccccc1 [Example 7, (2E)-3-(3-benzyl-1-phenyl-1H-indol-5-yl)-2-propenoic acid], which IC50 is on record?
A: The IC50 was 1.04 µM.

Q: Which IC50 does the source give for O=C(O)CCc1ccc2c(c1)c(Cc1ccccc1)cn2-c1ccccc1 [Example 8, 3-(3-benzyl-1-phenyl-1H-indol-5-yl)propanoic acid] here?
A: Its IC50 is 0.182 µM.

Q: For O=C(O)/C=C/c1ccc2c(c1)c(CCc1ccccc1)cn2-c1ccccc1 [Example 15, (2E)-3-[1-phenyl-3-(2-phenylethyl)-1H-indol-5-yl]-2-propenoic acid], which IC50 is on record?
A: The IC50 was 0.316 µM.

Q: How did the IC50 turn out when O=C(O)CCc1ccc2c(c1)c(CCc1ccccc1)cn2-c1ccccc1 [Example 16, 3-[1-phenyl-3-(2-phenylethyl)-1H-indol-5-yl]propanoic acid] was run?
A: The IC50 was 0.075 µM.

Q: For N#CNC(=O)CCc1ccc2c(c1)c(CCc1ccccc1)cn2-c1ccccc1 [Example 18, N-cyano-3-[1-phenyl-3-(2-phenylethyl)-1H-indol-5-yl]propanamide], which IC50 is on record?
A: The IC50 was 0.976 µM.

Q: With O=C(CCc1ccc2c(c1)c(CCc1ccccc1)cn2-c1ccccc1)Nc1nnn[nH]1 [Example 19, 3-[1-phenyl-3-(2-phenylethyl)-1H-indol-5-yl]-N-tetrazolylpropanamide] as the compound, how does the IC50 read?
A: Its IC50 is 10.8 µM.

Q: Which IC50 does the source give for O=C(CCc1ccc2c(c1)c(CCc1ccccc1)cn2-c1ccccc1)NO [Example 21, N-hydroxy-3-[1-phenyl-3-(2-phenylethyl)-1H-indol-5-yl]propanamide] here?
A: Its IC50 is 15.8 µM.

Q: With NC(=O)CCc1ccc2c(c1)c(CCc1ccccc1)cn2-c1ccccc1 [Example 22, 3-[1-phenyl-3-(2-phenylethyl)-1H-indol-5-yl]propanamide] as the compound, how does the IC50 read?
A: The IC50 was greater than 100 µM.

Q: Which IC50 does the source give for c1ccc(CCc2cn(-c3ccccc3)c3ccc(CCc4nnn[nH]4)cc23)cc1 [Example 24, 1-phenyl-3-(2-phenylethyl)-5-[2-(1H-tetrazol-5-yl)ethyl]-1H-indole] here?
A: The IC50 was 12.8 µM.

Q: With CC(C(=O)c1cn(-c2ccccc2)c2ccc(/C=C/C(=O)O)cc12)c1ccccc1 (stereo not drawn) [Example 26, (2E)-3-[1-phenyl-3-(2-phenylpropanoyl)-1H-indol-5-yl]-2-propenoic acid] as the compound, how does the IC50 read?
A: Its IC50 is 3.4 µM.

Q: With CC(C(=O)c1cn(-c2ccccc2)c2ccc(CCC(=O)O)cc12)c1ccccc1 (stereo not drawn) [Example 27, 3-[1-phenyl-3-(2-phenylpropanoyl)-1H-indol-5-yl]propanoic acid 2-amino-2-(hydroxymethyl)propane-1,3-diol salt (1:1)] as the compound, how does the IC50 read?
A: Its IC50 is 0.385 µM.

Q: Which IC50 does the source give for CC(Cc1cn(-c2ccccc2)c2ccc(CCC(=O)O)cc12)c1ccccc1 (stereo not drawn) [Example 28, 3-[1-phenyl-3-(2-phenylpropyl)-1H-indol-5-yl]propanoic acid 2-amino-2-(hydroxymethyl)propane-1,3-diol salt (1:1)] here?
A: The IC50 was 0.258 µM.

Q: With CC(Cc1cn(-c2ccccc2)c2ccc(CCC(N)=O)cc12)c1ccccc1 (stereo not drawn) [Example 29, 3-[1-phenyl-3-(2-phenylpropyl)-1H-indol-5-yl]propanamide] as the compound, how does the IC50 read?
A: The IC50 was 21.3 µM.

Q: CC(Cc1cn(-c2ccccc2)c2ccc(/C=C/C(=O)O)cc12)c1ccccc1 (stereo not drawn) [Example 33, (2E)-3-[1-phenyl-3-(2-phenylpropyl)-1H-indol-5-yl]-2-propenoic acid] was tested. Which IC50 did it give?
A: The IC50 was 0.662 µM.

Q: Which IC50 does the source give for CCC(C(=O)c1cn(-c2ccccc2)c2ccc(/C=C/C(=O)O)cc12)c1ccccc1 (stereo not drawn) [Example 35, (2E)-3-[1-phenyl-3-(2-phenylbutanoyl)-1H-indol-5-yl]-2-propenoic acid] here?
A: The IC50 was 5.81 µM.

Q: CCC(C(=O)c1cn(-c2ccccc2)c2ccc(CCC(=O)O)cc12)c1ccccc1 (stereo not drawn) [Example 36, 3-[1-phenyl-3-(2-phenylbutanoyl)-1H-indol-5-yl]propanoic acid 2-amino-2-(hydroxymethyl)propane-1,3-diol salt (1:1)] was tested. Which IC50 did it give?
A: Its IC50 is 0.33 µM.

Q: CCC(Cc1cn(-c2ccccc2)c2ccc(CCC(=O)O)cc12)c1ccccc1 (stereo not drawn) [Example 37, 3-[1-phenyl-3-(2-phenylbutyl)-1H-indol-5-yl]propanoic acid 2-amino-2-(hydroxymethyl)propane-1,3-diol salt (1:1)] was tested. Which IC50 did it give?
A: The IC50 was 1.45 µM.

Q: How did the IC50 turn out when O=C(O)/C=C/c1ccc2c(c1)c(C(=O)C1(c3ccccc3)CC1)cn2-c1ccccc1 [Example 39, (2E)-3-{1-phenyl-3-[(1-phenylcyclopropyl)carbonyl]-1H-indol-5-yl}-2-propenoic acid] was run?
A: Its IC50 is 10.8 µM.

Q: How did the IC50 turn out when O=C(O)CCc1ccc2c(c1)c(C(=O)C1(c3ccccc3)CC1)cn2-c1ccccc1 [Example 40, 3-{1-phenyl-3-[(1-phenylcyclopropyl)carbonyl]-1H-indol-5-yl}propanoic acid] was run?
A: Its IC50 is 2.3 µM.

Q: How did the IC50 turn out when O=C(O)CCc1ccc2c(c1)c(CC1(c3ccccc3)CC1)cn2-c1ccccc1 [Example 41, 3-{1-phenyl-3-[(1-phenylcyclopropyl)methyl]-1H-indol-5-yl}propanoic acid 2-amino-2-(hydroxymethyl)propane-1,3-diol salt (1:1)] was run?
A: The IC50 was 0.634 µM.

Q: For O=C(O)CCc1ccc2c(c1)c(Cc1ccc3ccccc3c1)cn2-c1ccccc1 [Example 54, 3-[3-(2-naphthylmethyl)-1-phenyl-1H-indol-5-yl]propanoic acid], which IC50 is on record?
A: Its IC50 is 6.12 µM.

Q: Which IC50 does the source give for O=C(O)CCc1ccc2c(c1)c(CCc1ccc(Cl)cc1)cn2-c1ccccc1 [Example 58, 3-{3-[2-(4-chlorophenyl)ethyl]-1-phenyl-1H-indol-5-yl}propanoic acid 2-amino-2-(hydroxymethyl)propane-1,3-diol salt (1:1)] here?
A: The IC50 was 1.16 µM.
